In the supplement of paper PMC10307832:

Assays:
Assay in all cases: relative viability (nuclei count vs DMSO), 5 days (fraction); higher = more cells survive
[1] = tested on: NCI-H650
In short: (§1)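 After 5 days of treatment, lung cancer cells in 1536-well plates were fixed and stained in a single step (final 0.05% Triton X-100, 1% formaldehyde, 1 ug/ml Hoechst) and their nuclei counted on 4× images. Treatment had been applied by pin tool the day after seeding as one drug alone or as a fixed anchor-drug dose with five library-drug doses (not always all listed) in √10 steps. Relative viability is the nuclei count of treated wells divided by that of vehicle wells, and values are medians of duplicate plates.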

[2] = tested on: LCLC-97TM1
In short: as §1

[3] = tested on: NCI-H596
In short: as §1

[4] = tested on: NCI-H1944
In short: as §1

[5] = tested on: LC-2-ad
In short: as §1

[6] = tested on: NCI-H460
In short: as §1

[7] = tested on: NCI-H1651
In short: as §1

[8] = tested on: PC-3 [JPC-3]
In short: as §1

[9] = tested on: BEN
In short: as §1

[10] = tested on: CAL-12T
In short: as §1

[11] = tested on: NCI-H727
In short: as §1

[12] = tested on: NCI-H441
In short: as §1

[13] = tested on: NCI-H2087
In short: as §1

[14] = tested on: H3255
In short: as §1

[15] = tested on: NCI-H1915
In short: as §1

[16] = tested on: ABC-1
In short: as §1

[17] = tested on: NCI-H520
In short: as §1

[18] = tested on: NCI-H661
In short: as §1

[19] = tested on: 201T
In short: as §1

[20] = tested on: NCI-H2023
In short: as §1

[21] = tested on: A-427
In short: as §1

Cc1sc2c(c1C)C(c1ccc(Cl)cc1)=N[C@@H](CC(=O)OC(C)(C)C)c1nnc(C)n1-2 [JQ1] + C[C@]1(O)C[C@@H](c2nc(-c3ccc4ccc(-c5ccccc5)nc4c3)c3c(N)nccn32)C1 [Linsitinib] (partner 1 µM)
relative viability ([1]; first compound 0.04 µM): 0.913
relative viability ([1]; first compound 0.1265 µM): 0.507
relative viability ([1]; first compound 0.4 µM): 0.503
relative viability ([1]; first compound 1.265 µM): 0.291
relative viability ([1]; first compound 4 µM): 0.26
relative viability ([2]; first compound 0.1265 µM): 0.181
relative viability ([2]; first compound 0.4 µM): 0.212
relative viability ([2]; first compound 1.265 µM): 0.125
relative viability ([2]; first compound 4 µM): 0.156
relative viability ([3]; first compound 0.04 µM): 1.22
relative viability ([3]; first compound 0.1265 µM): 1.03
relative viability ([3]; first compound 0.4 µM): 0.587
relative viability ([3]; first compound 1.265 µM): 0.418
relative viability ([3]; first compound 4 µM): 0.361
relative viability ([4]; first compound 0.04 µM): 1.15
relative viability ([4]; first compound 0.1265 µM): 0.874
relative viability ([4]; first compound 0.4 µM): 0.922
relative viability ([4]; first compound 1.265 µM): 0.623
relative viability ([4]; first compound 4 µM): 0.557
relative viability ([5]; first compound 0.04 µM): 0.753
relative viability ([5]; first compound 0.1265 µM): 0.773
relative viability ([5]; first compound 0.4 µM): 0.463
relative viability ([5]; first compound 1.265 µM): 0.253
relative viability ([5]; first compound 4 µM): 0.265
relative viability ([6]; first compound 0.04 µM): 0.661
relative viability ([6]; first compound 0.1265 µM): 0.54
relative viability ([6]; first compound 0.4 µM): 0.278
relative viability ([6]; first compound 1.265 µM): 0.0494
relative viability ([6]; first compound 4 µM): 0.0357
relative viability ([7]; first compound 0.04 µM): 0.776
relative viability ([7]; first compound 0.1265 µM): 0.871
relative viability ([7]; first compound 0.4 µM): 0.797
relative viability ([7]; first compound 1.265 µM): 0.433
relative viability ([7]; first compound 4 µM): 0.468
relative viability ([8]; first compound 0.04 µM): 0.942
relative viability ([8]; first compound 0.1265 µM): 0.998
relative viability ([8]; first compound 0.4 µM): 1.06
relative viability ([8]; first compound 1.265 µM): 0.79
relative viability ([8]; first compound 4 µM): 0.666
relative viability ([9]; first compound 0.04 µM): 0.886
relative viability ([9]; first compound 0.1265 µM): 0.742
relative viability ([9]; first compound 0.4 µM): 0.524
relative viability ([9]; first compound 1.265 µM): 0.347
relative viability ([9]; first compound 4 µM): 0.224
relative viability ([10]; first compound 0.04 µM): 0.793
relative viability ([10]; first compound 0.1265 µM): 0.794
relative viability ([10]; first compound 0.4 µM): 0.68
relative viability ([10]; first compound 1.265 µM): 0.275
relative viability ([10]; first compound 4 µM): 0.232
relative viability ([11]; first compound 0.04 µM): 0.374
relative viability ([11]; first compound 0.1265 µM): 0.313
relative viability ([11]; first compound 0.4 µM): 0.343
relative viability ([11]; first compound 1.265 µM): 0.244
relative viability ([11]; first compound 4 µM): 0.234
relative viability ([12]; first compound 0.04 µM): 0.774
relative viability ([12]; first compound 0.1265 µM): 0.484
relative viability ([12]; first compound 0.4 µM): 0.579
relative viability ([12]; first compound 1.265 µM): 0.386
relative viability ([12]; first compound 4 µM): 0.306
relative viability ([13]; first compound 0.04 µM): 1.02
relative viability ([13]; first compound 0.4 µM): 0.69
relative viability ([13]; first compound 1.265 µM): 0.456
relative viability ([13]; first compound 4 µM): 0.508
relative viability ([14]; first compound 0.04 µM): 0.913
relative viability ([14]; first compound 0.1265 µM): 0.728
relative viability ([14]; first compound 0.4 µM): 0.881
relative viability ([14]; first compound 1.265 µM): 0.402
relative viability ([14]; first compound 4 µM): 0.328
relative viability ([15]; first compound 0.04 µM): 1.15
relative viability ([15]; first compound 0.1265 µM): 0.966
relative viability ([15]; first compound 0.4 µM): 1.08
relative viability ([15]; first compound 1.265 µM): 0.652
relative viability ([15]; first compound 4 µM): 0.383
relative viability ([16]; first compound 0.04 µM): 0.716
relative viability ([16]; first compound 0.1265 µM): 0.772
relative viability ([16]; first compound 0.4 µM): 0.564
relative viability ([16]; first compound 1.265 µM): 0.356
relative viability ([16]; first compound 4 µM): 0.275
relative viability ([17]; first compound 0.04 µM): 0.962
relative viability ([17]; first compound 0.1265 µM): 1.26
relative viability ([17]; first compound 0.4 µM): 0.821
relative viability ([17]; first compound 1.265 µM): 0.435
relative viability ([17]; first compound 4 µM): 0.287
relative viability ([18]; first compound 0.04 µM): 0.635
relative viability ([18]; first compound 0.1265 µM): 0.512
relative viability ([18]; first compound 0.4 µM): 0.391
relative viability ([18]; first compound 1.265 µM): 0.305
relative viability ([18]; first compound 4 µM): 0.352
relative viability ([19]; first compound 0.04 µM): 0.996
relative viability ([19]; first compound 0.1265 µM): 1.08
relative viability ([19]; first compound 0.4 µM): 0.924
relative viability ([19]; first compound 1.265 µM): 0.607
relative viability ([19]; first compound 4 µM): 0.511
relative viability ([20]; first compound 0.04 µM): 0.653
relative viability ([20]; first compound 0.1265 µM): 0.576
relative viability ([20]; first compound 0.4 µM): 0.379
relative viability ([20]; first compound 1.265 µM): 0.207
relative viability ([20]; first compound 4 µM): 0.157
relative viability ([21]; first compound 0.04 µM): 1.19
relative viability ([21]; first compound 0.1265 µM): 1.04
relative viability ([21]; first compound 0.4 µM): 1.14
relative viability ([21]; first compound 1.265 µM): 1.06
relative viability ([21]; first compound 4 µM): 0.721
